The assay deals with voltage-gated calcium current in HN2A12 cells. Type of assay: cell-based, murine.

For the compound `[Cl][Cd][Cl]` [CdCl2], the “inhibition of the voltage-gated calcium current” value was “completely inhibited”.

With ω-conotoxin-GVIA, the “block of the calcium current (N-type part)” value is “about 38%”.
